Test results as given in patent US4390629A, “Polypeptide degrading enzymes” (President and Fellows of Harvard College, priority 1981, dated 1983).
Read-outs that look alike come from different tables or passages of the source.

Experiments:
[1] = system: Protease Ci; experiment: Inhibition and stimulation of protease Ci insulin-degrading activity; type: biochemical, E. coli
[2] = molecular target: T1, La (Escherichia coli, UniProt P0A9M0)
[3] = molecular target: T1, La; experiment: biochemical; conditions: read-out: stimulation of globin-degrading activity in peak IV
[4] = system: Protease So; type: biochemical, E. coli
[5] = molecular target: T2, Protease Re (Escherichia coli, UniProt P23865); experiment: Sensitivity of protease Re proteolytic activity (casein) to inhibitors; type: biochemical, E. coli
T2 sequence (P23865 23-682): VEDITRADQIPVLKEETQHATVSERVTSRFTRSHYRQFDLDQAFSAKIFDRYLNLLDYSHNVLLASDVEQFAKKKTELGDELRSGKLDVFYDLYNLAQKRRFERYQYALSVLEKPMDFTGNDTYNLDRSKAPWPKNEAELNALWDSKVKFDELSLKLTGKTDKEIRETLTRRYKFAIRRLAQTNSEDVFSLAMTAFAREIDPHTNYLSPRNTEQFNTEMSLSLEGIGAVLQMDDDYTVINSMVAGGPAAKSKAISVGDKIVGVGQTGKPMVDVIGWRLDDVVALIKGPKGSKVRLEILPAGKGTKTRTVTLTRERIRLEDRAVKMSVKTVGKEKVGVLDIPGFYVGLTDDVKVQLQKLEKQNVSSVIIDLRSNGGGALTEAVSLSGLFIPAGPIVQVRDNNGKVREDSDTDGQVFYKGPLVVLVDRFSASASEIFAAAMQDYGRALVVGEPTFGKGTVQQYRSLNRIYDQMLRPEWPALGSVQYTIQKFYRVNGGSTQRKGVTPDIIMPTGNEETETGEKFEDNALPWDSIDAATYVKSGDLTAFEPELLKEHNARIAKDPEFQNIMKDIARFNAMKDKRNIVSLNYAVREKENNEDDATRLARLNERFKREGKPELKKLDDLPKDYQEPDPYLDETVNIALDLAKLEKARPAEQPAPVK

[6] = system: Mi; type: biochemical, E. coli
[7] = system: Fa; type: biochemical, E. coli
[8] = system: [^14 C] globin; experiment: Degradation of [14C] globin to acid-soluble products; type: biochemical, beef
[9] = system: [^3 H] casein; experiment: Degradation of [3H] casein to acid-soluble products; type: biochemical, bovine

For `[Mn+2]` [Mn^++], the “stimulation of protease Ci activity by divalent cations” value (from here on “stimulation of protease Ci activity”) [1] was “markedly stimulated”.

In the case of `CCN1C(=O)C=CC1=O` [N-ethyl maleimide], the “sensitivity of La to inhibitor” value [2] is reported as “inhibited”.

In the case of `Nc1ncnc2c1ncn2[C@@H]1O[C@H](COP(=O)(O)OP(=O)(O)OP(=O)(O)O)[C@@H](O)[C@H]1O` [ATP], the “increase of degradation of globin and casein by La” value ([2]; 3000 µM) is reported as 2.5-20 fold and the fold induction at 3000 µM [3] is reported as 4 to 20.

In the case of `[O]=[V]([O-])([O-])[O-]` [Vanadate], the “sensitivity of La to inhibitor” value [2] is reported as “sensitive to inhibition”.

For `N=C(N)c1ccc(OCCCCCOc2ccc(C(=N)N)cc2)cc1` [pentamidine], the “inhibition of protease So” value [4] was “about 80%”.

`Nc1ncnc2c1ncn2[C@H]1C[C@H](O)[C@@H](COP(=O)(O)OP(=O)(O)OP(=O)(O)O)O1` [deoxyadenosine triphosphate] was tested, and the “stimulation of La proteolysis by nucleotides (in words)” value (“stimulation of La proteolysis” below) [2] was “stimulate but less effectively”.

With bacitracin the “inhibition of protease Ci activity by antibiotics” value [1] was “strongly inhibit”.

`O=C(O)CN(CCN(CC(=O)O)CC(=O)O)CC(=O)O` [EDTA] was tested, and the “sensitivity of protease Re to inhibitor” value [5] was “sensitive”, the “inhibition of Mi” value [6] was “about 35%” and the “inhibition of Fa” value [7] was 60%.

`O=S(=O)(F)Cc1ccccc1` [phenylmethyl sulfonyl fluoride] was tested, and the “sensitivity of protease Re to inhibitor” value [5] was “sensitive”, the “sensitivity of protease So to inhibitor” value [4] was “sensitive” and the “sensitivity of La to inhibitor” value [2] was “sensitive”.

In the case of `O=C(O)c1cc[c]([Hg+])cc1.[OH-]` [p-hydroxymercuribenzoate], the “inhibition of protease Ci activity” value [1] is reported as “sensitive”.

In the case of `[Co+2]` [Co^++], the “stimulation of protease Ci activity” value [1] is reported as “markedly stimulated”.

For `O=C(O)CN(CCOCCOCCN(CC(=O)O)CC(=O)O)CC(=O)O` [EGTA], the “inhibition of protease Ci activity” value [1] was “not”.

With `O=c1ccn([C@@H]2O[C@H](COP(=O)(O)OP(=O)(O)OP(=O)(O)O)[C@@H](O)[C@H]2O)c(=O)[nH]1` [UTP] the “stimulation of La proteolysis” value [2] was “stimulate but less effectively”.

In the case of `c1cnc2c(c1)ccc1cccnc12` [o-phenanthroline], the “sensitivity of protease Re to inhibitor” value ([5]; casein as substrate) is reported as “sensitive”, the “inhibition of Mi” value [6] is reported as “about 35%” and the “inhibition of Fa” value [7] is reported as “about 35%”. For the same molecule, the “inhibition of protease Ci activity” value [1] was “inhibited”.

For `[Zn+2]` [Zn^++], the “stimulation of protease Ci activity” value [1] was “not”.

`Nc1ccn([C@@H]2O[C@H](COP(=O)(O)OP(=O)(O)OP(=O)(O)O)[C@@H](O)[C@H]2O)c(=O)n1` [CTP] was tested, and the “stimulation of La proteolysis” value [2] was “stimulate but less effectively”.

In the case of `CCCCCCC1OC(=O)CNC(=O)C(C(C)O)NC(=O)C(CO)NC(=O)C(C(C)CC)NC(=O)C(CC(C)C)N(C)C(=O)C1C` (centres unmarked) [globomycin], the “inhibition of protease Ci activity by antibiotics” value ([1]; concentrations of 5-20 μg per ml) is reported as “strongly inhibit”.

B1: Do: E. coli serine protease of about 520,000 daltons, degrades globin and casein (protein, UniProt P0C0V0 27-474, looked up)
Periplasmic serine …: AETSSATTAQQMPSLAPMLEKVMPSVVSINVEGSTTVNTPRMPRNFQQFFGDDSPFCQEGSPFQSSPFCQGGQGGNGGGQQQKFMALGSGVIIDADKGYVVTNNHVVDNATVIKVQLSDGRKFDAKMVGKDPRSDIALIQIQNPKNLTAIKMADSDALRVGDYTVAIGNPFGLGETVTSGIVSALGRSGLNAENYENFIQTDAAINRGNSGGALVNLNGELIGINTAILAPDGGNIGIGFAIPSNMVKNLTSQMVEYGQVKRGELGIMGTELNSELAKAMKVDAQRGAFVSQVLPNSSAAKAGIKAGDVITSLNGKPISSFAALRAQVGTMPVGSKLTLGLLRDGKQVNVNLELQQSSQNQVDSSSIFNGIEGAEMSNKGKDQGVVVNNVKTGTPAAQIGLKKGDVIIGANQQAVKNIAELRKVLDSKPSVLALNIQRGDSTIYLLMQ
For B1, the degradation of globin [8] was “hydrolyze” and the degradation of casein [9] was “hydrolyze”.

B2: La: ATP-dependent cytoplasmic E. coli serine protease of peak IV, about 115,000 daltons (protein, UniProt P0A9M0 2-784, looked up)
Lon protease: NPERSERIEIPVLPLRDVVVYPHMVIPLFVGREKSIRCLEAAMDHDKKIMLVAQKEASTDEPGVNDLFTVGTVASILQMLKLPDGTVKVLVEGLQRARISALSDNGEHFSAKAEYLESPTIDEREQEVLVRTAISQFEGYIKLNKKIPPEVLTSLNSIDDPARLADTIAAHMPLKLADKQSVLEMSDVNERLEYLMAMMESEIDLLQVEKRIRNRVKKQMEKSQREYYLNEQMKAIQKELGEMDDAPDENEALKRKIDAAKMPKEAKEKAEAELQKLKMMSPMSAEATVVRGYIDWMVQVPWNARSKVKKDLRQAQEILDTDHYGLERVKDRILEYLAVQSRVNKIKGPILCLVGPPGVGKTSLGQSIAKATGRKYVRMALGGVRDEAEIRGHRRTYIGSMPGKLIQKMAKVGVKNPLFLLDEIDKMSSDMRGDPASALLEVLDPEQNVAFSDHYLEVDYDLSDVMFVATSNSMNIPAPLLDRMEVIRLSGYTEDEKLNIAKRHLLPKQIERNALKKGELTVDDSAIIGIIRYYTREAGVRGLEREISKLCRKAVKQLLLDKSLKHIEINGDNLHDYLGVQRFDYGRADNENRVGQVTGLAWTEVGGDLLTIETACVPGKGKLTYTGSLGEVMQESIQAALTVVRARAEKLGINPDFYEKRDIHVHVPEGATPKDGPSAGIAMCTALVSCLTGNPVRADVAMTGEITLRGQVLPIGGLKEKLLAAHRGGIKTVLIPFENKRDLEEIPDNVIADLDIHPVKRIEEVLTLALQNEPSGMQVVTAK
With B2 the degradation of globin [8] was “capable of degrading” and the degradation of casein [9] was “capable of degrading”.
